One assay relates to PC-3. Put plainly: Growth inhibition of human PC3 cells after 4 to 6 days by Presto blue assay. It counts as functional.
The test system of a further assay is HCC1954. Put plainly: Growth inhibition of human HCC1954 cells after 4 to 6 days by Presto blue assay. It counts as functional.
The species entered for a further assay is Bos taurus. The assay is described as follows: Inhibition of bovine brain tubulin polymerization at 10 uM after 60 mins by spectrophotometric method.

The results in this text go back to ChEMBL document CHEMBL4130431, “Synthesis and Evaluation of Dolastatin 10 Analogues Containing Heteroatoms on the Amino Acid Side Chains” (2017).

The source made the active and inactive calls. The calls are words filed in the database; no cut-off is given here. Non-standard residues stand in square brackets, D forms with d. Residues, ends and D or L forms follow the SMILES beside them. *: point of attachment. Dolaproine = CO[C@@H]([C@@H]1CCCN1)[C@@H](C)C(=O)O; Abu(3S-N3) = C[C@H](N=[N+]=[N-])[C@H](N)C(=O)O; Dil = CC[C@H](C)[C@H](NC)[C@@H](CC(=O)O)OC; Abu(3S-NH2) = C[C@H](N)[C@H](N)C(=O)O; Dap(N3) = [N-]=[N+]=NC[C@H](N)C(=O)O; NMe2Val = CC(C)[C@@H](C(=O)*)N(C)C; Aha = [N-]=[N+]=NCC[C@H](N)C(=O)O; Pra = C#CC[C@H](N)C(=O)O; Dab = NCC[C@H](N)C(=O)O; Dap = NC[C@H](N)C(=O)O; NHtBu = CC(C)(C)N*; OtBu = CC(C)(C)O*

In the case of `CC[C@H](C)[C@@H]([C@@H](CC(=O)N1CCC[C@H]1[C@H](OC)[C@@H](C)C(=O)N[C@@H](Cc1ccccc1)C(=O)O)OC)N(C)C(=O)[C@@H](NC(=O)[C@H](C(C)C)N(C)C)[C@H](C)N` (NMe2Val-[Abu(3S-NH2)][Dil][Dolaproine]F-OH), the GI50 in the assay with PC-3 is 11 nM; in the assay with HCC1954 it was 2.5 nM.
Consider `CC[C@H](C)[C@@H]([C@@H](CC(=O)N1CCC[C@H]1[C@H](OC)[C@@H](C)C(=O)N[C@@H](Cc1ccccc1)C(=O)OC)OC)N(C)C(=O)[C@H](CCN=[N+]=[N-])NC(=O)[C@H](C(C)C)N(C)C` (NMe2Val-[Aha][Dil][Dolaproine]F-OMe), for which the 50% growth inhibitory concentration (GI50) was found to be 1.1 nM with PC-3 and 0.43 nM in the assay with HCC1954.
The like results for `CC[C@H](C)[C@@H]([C@@H](CC(=O)N1CCC[C@H]1[C@H](OC)[C@@H](C)C(=O)NCCc1ccc(Cl)cc1)OC)N(C)C(=O)[C@@H](NC(=O)[C@H](C(C)C)N(C)C)[C@H](C)N=[N+]=[N-]` were, in that order, 40 nM and 33 nM.
Regarding `CC[C@H](C)[C@@H]([C@@H](CC(=O)N1CCC[C@H]1[C@H](OC)[C@@H](C)C(=O)N[C@@H](Cc1ccccc1)C(=O)OC(C)(C)C)OC)N(C)C(=O)[C@@H](NC(=O)[C@H](C(C)C)N(C)C)[C@H](C)N=[N+]=[N-]` (NMe2Val-[Abu(3S-N3)][Dil][Dolaproine]F-OtBu), the GI50 in the assay on PC-3 was 0.045 nM; with HCC1954 it was 0.089 nM.
As to `CC[C@H](C)[C@@H]([C@@H](CC(=O)N1CCC[C@H]1[C@H](OC)[C@@H](C)C(=O)N[C@@H](Cc1ccccc1)C(=O)OC)OC)N(C)C(=O)[C@@H](NC(=O)[C@H](C(C)C)N(C)C)[C@H](C)N=[N+]=[N-]` (NMe2Val-[Abu(3S-N3)][Dil][Dolaproine]F-OMe), the concentration for 50% growth inhibition (GI50) was determined as 0.093 nM in the assay with PC-3 and 0.041 nM with HCC1954.
On the same counts, the results for `CC[C@H](C)[C@@H]([C@@H](CC(=O)N1CCC[C@H]1[C@H](OC)[C@@H](C)C(=O)NCCc1ccccc1Cl)OC)N(C)C(=O)[C@@H](NC(=O)[C@H](C(C)C)N(C)C)[C@H](C)N=[N+]=[N-]` are 34 nM and 13 nM.
As to `CC[C@H](C)[C@@H]([C@@H](CC(=O)N1CCC[C@H]1[C@H](OC)[C@@H](C)C(=O)N[C@@H](Cc1ccccc1)C(=O)OC)OC)N(C)C(=O)[C@H](CN)NC(=O)[C@H](C(C)C)N(C)C` (NMe2Val-[Dap][Dil][Dolaproine]F-OMe), the figures for the GI50 in the assay on PC-3 and in the assay on HCC1954 were 20 nM and 3.5 nM, respectively.
In the case of `CC[C@H](C)[C@@H]([C@@H](CC(=O)N1CCC[C@H]1[C@H](OC)[C@@H](C)C(=O)N[C@@H](Cc1ccccc1)C(=O)O)OC)N(C)C(=O)[C@@H](NC(=O)[C@H](C(C)C)N(C)C)[C@H](C)N=[N+]=[N-]` (NMe2Val-[Abu(3S-N3)][Dil][Dolaproine]F-OH), the GI50 with PC-3 and with HCC1954 was above 1000 nM in each case.
For `CC[C@H](C)[C@@H]([C@@H](CC(=O)N1CCC[C@H]1[C@H](OC)[C@@H](C)C(=O)NCCc1ccccn1)OC)N(C)C(=O)[C@H](CO)NC(=O)[C@H](C(C)C)N(C)C`, the GI50 in the assay with PC-3 and in the assay with HCC1954 was above 1000 nM throughout.
For the compound `C#CC[C@H](NC(=O)[C@H](C(C)C)N(C)C)C(=O)N(C)[C@@H]([C@@H](C)CC)[C@@H](CC(=O)N1CCC[C@H]1[C@H](OC)[C@@H](C)C(=O)N[C@@H](Cc1ccccc1)C(=O)OC)OC` (NMe2Val-[Pra][Dil][Dolaproine]F-OMe), the GI50 with PC-3 was found to be 0.36 nM; with HCC1954 it was 0.16 nM.
On the same counts, the results for `CC[C@H](C)[C@@H]([C@@H](CC(=O)N1CCC[C@H]1[C@H](OC)[C@@H](C)C(=O)N[C@@H](Cc1ccccc1)C(=O)OC)OC)N(C)C(=O)[C@H](CN=[N+]=[N-])NC(=O)[C@H](C(C)C)N(C)C` (NMe2Val-[Dap(N3)][Dil][Dolaproine]F-OMe) are 0.11 nM and 0.036 nM.
For the compound `CC[C@H](C)[C@@H]([C@@H](CC(=O)N1CCC[C@H]1[C@H](OC)[C@@H](C)C(=O)N[C@@H](Cc1ccccc1)C(=O)OC)OC)N(C)C(=O)[C@H](CO)NC(=O)[C@H](C(C)C)N(C)C` (NMe2Val-S[Dil][Dolaproine]F-OMe), the results for the concentration for 50% growth inhibition (GI50) with PC-3 and in the assay on HCC1954 were 1.2 nM and 0.34 nM, respectively.
In the case of `CC[C@H](C)[C@@H]([C@@H](CC(=O)N1CCC[C@H]1[C@H](OC)[C@@H](C)C(=O)N[C@@H](Cc1ccccc1)C(=O)OC)OC)N(C)C(=O)[C@@H](NC(=O)[C@H](C(C)C)N(C)C)[C@@H](C)O` (NMe2Val-T[Dil][Dolaproine]F-OMe), the results for the GI50 with PC-3 and with HCC1954 were 0.38 nM and 0.16 nM, respectively.
The like results for `CC[C@H](C)[C@@H]([C@@H](CC(=O)N1CCC[C@H]1[C@H](OC)[C@@H](C)C(=O)N[C@@H](Cc1ccccc1)C(=O)OC)OC)N(C)C(=O)[C@H](CS)NC(=O)[C@H](C(C)C)N(C)C` (NMe2Val-C[Dil][Dolaproine]F-OMe) were, in that order, 3.8 nM and 3.2 nM.
Compound `CC[C@H](C)[C@@H]([C@@H](CC(=O)N1CCC[C@H]1[C@H](OC)[C@@H](C)C(=O)NCCc1ccccn1)OC)N(C)C(=O)[C@@H](NC(=O)[C@H](C(C)C)N(C)C)[C@@H](C)O` displayed a concentration for 50% growth inhibition (GI50) in the assay with HCC1954 of 21 nM.
In the case of `CC[C@H](C)[C@@H]([C@@H](CC(=O)N1CCC[C@H]1[C@H](OC)[C@@H](C)C(=O)N[C@@H](Cc1ccccc1)c1nnn[nH]1)OC)N(C)C(=O)[C@@H](NC(=O)[C@H](C(C)C)N(C)C)[C@H](C)N=[N+]=[N-]`, the GI50 came out at 41 nM with PC-3 and 27 nM in the assay with HCC1954. Moreover, in the assay listed under Bos taurus, the inhibition result is “Active”.
For the compound `CC[C@H](C)[C@@H]([C@@H](CC(=O)N1CCC[C@H]1[C@H](OC)[C@@H](C)C(=O)N[C@@H](Cc1ccccc1)C(=O)NC(C)(C)C)OC)N(C)C(=O)[C@@H](NC(=O)[C@H](C(C)C)N(C)C)[C@H](C)N=[N+]=[N-]` (NMe2Val-[Abu(3S-N3)][Dil][Dolaproine]F-NHtBu), the GI50 with PC-3 came out at 1.2 nM; in the assay with HCC1954 it was 0.4 nM.
Turning to `CC[C@H](C)[C@@H]([C@@H](CC(=O)N1CCC[C@H]1[C@H](OC)[C@@H](C)C(=O)NCCc1ccccc1)OC)N(C)C(=O)[C@@H](NC(=O)[C@H](C(C)C)N(C)C)[C@H](C)N=[N+]=[N-]`, the GI50 in the assay on PC-3 amounted to 4.7 nM; in the assay with HCC1954, 3.1 nM.
With `CC[C@H](C)[C@@H]([C@@H](CC(=O)N1CCC[C@H]1[C@H](OC)[C@@H](C)C(=O)NCCc1ccccn1)OC)N(C)C(=O)[C@@H](NC(=O)[C@H](C(C)C)N(C)C)[C@H](C)N=[N+]=[N-]`, the figures for the GI50 in the assay with PC-3 and in the assay with HCC1954 were 5.1 nM and 3.7 nM, respectively.
On the same counts, the results for `CC[C@H](C)[C@@H]([C@@H](CC(=O)N1CCC[C@H]1[C@H](OC)[C@@H](C)C(=O)N[C@@H](Cc1ccccc1)C(N)=O)OC)N(C)C(=O)[C@@H](NC(=O)[C@H](C(C)C)N(C)C)[C@H](C)N=[N+]=[N-]` (NMe2Val-[Abu(3S-N3)][Dil][Dolaproine]F-NH2) are 1.7 nM and 0.4 nM.
The like results for `CC[C@H](C)[C@@H]([C@@H](CC(=O)N1CCC[C@H]1[C@H](OC)[C@@H](C)C(=O)N[C@@H](Cc1ccccc1)C(=O)OC)OC)N(C)C(=O)[C@@H](NC(=O)[C@H](C(C)C)N(C)C)[C@H](C)N` (NMe2Val-[Abu(3S-NH2)][Dil][Dolaproine]F-OMe) were, in that order, 0.54 nM and 0.076 nM.
Regarding `CC[C@H](C)[C@@H]([C@@H](CC(=O)N1CCC[C@H]1[C@H](OC)[C@@H](C)C(=O)N[C@@H](Cc1ccccc1)c1nccs1)OC)N(C)C(=O)[C@@H](NC(=O)[C@H](C(C)C)N(C)C)[C@H](C)N=[N+]=[N-]`, the GI50 with PC-3 was 33 nM; with HCC1954 it was 18 nM. In addition, the inhibition result in the assay listed under Bos taurus is “Active”.
In the case of `CC[C@H](C)[C@@H]([C@@H](CC(=O)N1CCC[C@H]1[C@H](OC)[C@@H](C)C(=O)N[C@@H](Cc1ccccc1)C(=O)O)OC)N(C)C(=O)[C@H](CO)NC(=O)[C@H](C(C)C)N(C)C` (NMe2Val-S[Dil][Dolaproine]F-OH), the GI50 in the assay on PC-3 was 19 nM; with HCC1954 it was 4.4 nM.
Turning to `CC[C@H](C)[C@@H]([C@@H](CC(=O)N1CCC[C@H]1[C@H](OC)[C@@H](C)C(=O)N[C@@H](Cc1ccccc1)C(=O)O)OC)N(C)C(=O)[C@@H](NC(=O)[C@H](C(C)C)N(C)C)[C@@H](C)O` (NMe2Val-T[Dil][Dolaproine]F-OH), the GI50 with PC-3 turned out to be 5 nM; in the assay with HCC1954, 3.5 nM.
On the same counts, the results for `CC[C@H](C)[C@@H]([C@@H](CC(=O)N1CCC[C@H]1[C@H](OC)[C@@H](C)C(=O)N[C@@H](Cc1ccccc1)C(=O)OC)OC)N(C)C(=O)[C@H](CC(=O)O)NC(=O)[C@H](C(C)C)N(C)C` (NMe2Val-D[Dil][Dolaproine]F-OMe) are 610 nM and above 1000 nM.
In the assay on HCC1954, `CC[C@H](C)[C@@H]([C@@H](CC(=O)N1CCC[C@H]1[C@H](OC)[C@@H](C)C(=O)N[C@@H](Cc1ccccc1)C(=O)OC)OC)N(C)C(=O)[C@H](CCCCN)NC(=O)[C@H](C(C)C)N(C)C` (NMe2Val-K[Dil][Dolaproine]F-OMe) displayed a GI50 of 340 nM.
Consider `CC[C@H](C)[C@@H]([C@@H](CC(=O)N1CCC[C@H]1[C@H](OC)[C@@H](C)C(=O)N[C@H](C)[C@@H](O)c1ccccc1)OC)N(C)C(=O)[C@@H](NC(=O)[C@H](C(C)C)N(C)C)[C@H](C)N=[N+]=[N-]`, for which the GI50 with PC-3 came out at 50 nM; with HCC1954, 34 nM.
For `CC[C@H](C)[C@@H]([C@@H](CC(=O)N1CCC[C@H]1[C@H](OC)[C@@H](C)C(=O)N[C@@H](Cc1ccccc1)C(=O)OC)OC)N(C)C(=O)[C@H](CCN)NC(=O)[C@H](C(C)C)N(C)C` (NMe2Val-[Dab][Dil][Dolaproine]F-OMe), the GI50 in the assay on PC-3 and in the assay with HCC1954 was above 1000 nM throughout.

The term GI50 denotes the concentration at which growth is held to half of that of the control. Read a high GI50 as less potent growth inhibition.
